The format of data set [1] is physicochemical. As for the experimental part: Known weights of (−) norepinephrine-tartrate dry powder were added to individual, 2.0 ml clear glass vials. An appropriate volume of ethanol and water at a ratio of 70:30 by volume solvent was then added to achieve the indicated concentrations. Sealed vials were vortexed for five seconds and then left at room temperature for 24 hr in the dark before examination to determine turbidity of liquid due to undissolved material.
Known weights of (−) norepinephrine-tartrate or (+/−) norepinephrine-HCl dry powders were added to individual, 2.0 ml, clear glass vials. An appropriate volume of ethanol to water (70:30) solvent was then added to achieve the indicated concentrations. Sealed vials were vortexed for five seconds and then left at room temperature for 24 hr in the dark before examination to determine turbidity of liquid due to undissolved material. Table 2, below, provides the solubility of (+/−) norepinephrine-HCl and (−) norepinephrine-tartrate in topical delivery vehicle of ethanol and water (70:30).
Known weights of the indicated norepinephrine salts were added to individual, 2.0 ml, clear glass vials. An appropriate volume of 70:30 (ethanol:water) solvent was then added to achieve the indicated concentrations. Sealed vials were vortexed for five seconds and then left at room temperature for 24 hr before examination to determine turbidity of liquid due to undissolved material.

Data set [2] relates to human skin. Nature of the data set: Skin blanch response in human skin following topical application. The settings on record: 600 mM solution in 70:30 ethanol:water compared with supersaturated 300 mM (−) norepinephrine-tartrate. It counts as in vivo. The protocol: Appropriate weights of each dry norepinephrine salt were weighed into clear glass vials, and appropriate volumes of ethanol and water at a ratio of 70:30, by volume, were added to achieve the indicated norepinephrine concentrations. The (+/−) norepinephrine-HCl dissolved to clarity with 5 second mixing at room temperature, and the (−) norepinephrine-tartrate required heating to 60° C. for 5 minutes and then mixing to clarify. 25 μL aliquots of each formulation were applied using a pipettor over multiple 2×2 cm patches of skin on volunteer's arm over a 20 second period. Images to record skin blanch onset, degree and duration were begun at 2 minute post-application. % Skin Blanch scores were assigned by visual evaluation. 100% Skin Blanch equaled the skin blanch seen after pressing firmly on the skin and quickly releasing.
Equal concentrations (300 mM) of the (−) norepinephrine enantiomer, either alone as the tartrate salt or in the presence of an equal amount of the (+) enantiomer HCl salt, were applied to human skin in the ethanol:water (70:30) delivery vehicle, and the pharmacologic efficacy of the (−) norepinephrine was scored based upon its ability to induce a skin blanch response by binding to al adrenergic receptors in the smooth muscle cells of the subcutaneous dermal blood vessels. […]

Data set [3] in a line: Stability of (−) norepinephrine-HCl dissolved in water at 1000 mM. It counts as physicochemical. The settings on record: 4° C. and 24° C., weeks/months following formulation. As for the experimental part:
(−) norepinephrine-HCl dissolved in water at 1000 mM is stable at 4° C. and 24° C. as determined by the absence of precipitate or colored oxidation products in the weeks/months following initial formulation. Previous formulations of norepinephrine-tartrate in saline (e.g., Levophed®, Hospira, Inc., Lake Forest, Ill.) have norepinephrine concentrations of 1-5 mM.
(−) norepinephrine-HCl was weighed into a glass vial. An appropriate volume of N2-purged water ([…] with vigorous N2 bubbling and stir bar) was delivered to the vial. The vial headspace was flushed with N2 gas and the vial was sealed. The vial was vortexed for 5 seconds to produce a clear solution. A weighed amount of dry citric acid solid was added to the (−) norepinephrine-HCl solution, the vial headspace was flushed with N2 and the vial was sealed. The vial was vortexed until the solution was clear. 200 μl aliquots of (−) norepinephrine-HCl+citric acid solution were added to 2.0 ml, clear, glass vials (previously rinsed with ethanol and dried). The vial headspaces were optionally flushed with N2 gas and the vials were sealed. 3.0 ml of (−) norepinephrine-HCl+citric acid solution was transferred to a glass vial, an appropriate dry weight of sodium EDTA was added to the vial, the vial headspace was flushed with N2 gas, the vial was sealed and the vial was vortexed until clear. […]

Data set [4] has as its system radiation-treated rats. Briefly: Radiodermatitis in radiation-treated rats after topical vasoconstrictor. It counts as in vivo, rat. As to conditions: two rats, 600 mM in ethanol:water (70:30) delivery vehicle applied prior to irradiation (FIG. 1). The text has this: In the model, a topical vasoconstrictor was applied to a shaved area on the backs of rats prior to irradiation with a Cs^137 source. The severity of radiodermatitis was scored on day 13. Vasoconstriction at the topical treatment site was evidenced by the transient occurrence of a visible skin blanch that correlates with therapeutic efficacy in the rat radiodermatitis model. This skin blanch may serve as a surrogate efficacy marker for clinical studies. The general strategy of using topical vasoconstrictors to prevent these cancer therapy side effects is addressed in U.S. Pub. No 2007/0077219, which is incorporated by reference in its entirety herein.

Data set [5] relates to radiation-treated rats. As to conditions: topical, applied prior to irradiation of rat skin; cited from earlier work.
In data set [6] the target is β2 adrenergic receptor (Homo sapiens, UniProt P07550). As to conditions: cited from earlier work.
β2 adrenergic receptor, sequence (P07550 whole entry, species assumed): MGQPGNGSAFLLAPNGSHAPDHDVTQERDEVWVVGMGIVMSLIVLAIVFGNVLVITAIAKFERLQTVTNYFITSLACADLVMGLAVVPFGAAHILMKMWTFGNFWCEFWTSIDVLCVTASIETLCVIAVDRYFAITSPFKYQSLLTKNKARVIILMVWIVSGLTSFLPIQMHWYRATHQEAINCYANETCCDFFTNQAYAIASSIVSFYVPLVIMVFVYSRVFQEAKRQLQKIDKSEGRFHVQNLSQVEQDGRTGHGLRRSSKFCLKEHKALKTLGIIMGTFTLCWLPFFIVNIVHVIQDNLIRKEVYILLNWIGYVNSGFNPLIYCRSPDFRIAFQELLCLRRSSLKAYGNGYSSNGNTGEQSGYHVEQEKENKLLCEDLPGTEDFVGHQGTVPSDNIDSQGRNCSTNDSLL
For data set [7] the following is noted: super-saturated solutions for topical application; cited from earlier work.

For the molecule `Cl.NCC(O)c1ccc(O)c(O)c1` (racemic) [(+/−) norepinephrine-HCl], in data set [1], the maximum solubility entry was “at least 2000 mM” and the “solubility relative to (−) norepinephrine-tartrate” value was “at least 10 fold”. The “vasoconstrictor activity in inducing a skin blanch response” value in data set [2] is listed as “at least the same activity”.
For the molecule `Cl.NC[C@H](O)c1ccc(O)c(O)c1` [(−) norepinephrine-HCl], the maximum solubility entry in data set [1] was “at least 2000 mM”. For the same molecule, the “stability by absence of precipitate or colored oxidation products” value in data set [3] is “stable”. Also, the occurrence of radiodermatitis result in data set [4] is “absence of radiodermatitis”.
As to `CNC[C@H](O)c1ccc(O)c(O)c1` [epinephrine], in data set [5], the “protection against development of radiation dermatitis” value is recorded as “complete protection”.
Take `NC[C@H](O)c1ccc(O)c(O)c1` [norepinephrine]: the “protection against development of radiation dermatitis” value in data set [5] is “the same protection”. Besides, the “binding to the β2 adrenergic receptor” value in data set [6] is given as “does not bind”.
Take (−) norepinephrine-tartrate: in data set [1], the maximum solubility came to 200 mM and the solubility limit entry is “about 200 mM”. For the same molecule, in data set [7], the “stability of super-saturated solution” value is “stable for only a few hours”.

The values are drawn from patent US20140343159A1, “FORMULATION OF SMALL ADRENERGIC AGONIST SALT FORMS IN ORGANIC SOLVENTS” (PROCERTUS BIOPHARM, INC., priority 2011, published 2014).
